Test system: LG0567-F671-PDC complex spheroids viability
Test: Anticancer human tumor LG0567-F671-PDC patient-derived lung adenocarcinoma cell line growth inhibition [RAS]
Conditions: for IC50: curve of first compound; for viability, T/C: stronger effect = lower value
How it was run: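 Multi-cell-type spheroids: tumor cells plus HUVEC endothelial cells and mesenchymal stem cells. RAS-pathway inhibitors were combined with targeted agents, each dosed in half-log steps down from clinical Cmax, or from 10 microM when Cmax was unknown.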

[1] = second compound 0.00316 µM, first compound 0.0316 µM
[2] = second compound 0.00316 µM, first compound 0.1 µM
[3] = second compound 0.00316 µM, first compound 0.316 µM
[4] = second compound 0.00316 µM, first compound 1 µM
[5] = second compound 0.00316 µM, first compound 3.16 µM
[6] = second compound 0.00316 µM, first compound 10 µM
[7] = second compound 0.01 µM, first compound 0.0316 µM
[8] = second compound 0.01 µM, first compound 0.1 µM
[9] = second compound 0.01 µM, first compound 0.316 µM
[10] = second compound 0.01 µM, first compound 1 µM
[11] = second compound 0.01 µM, first compound 3.16 µM
[12] = second compound 0.01 µM, first compound 10 µM
[13] = second compound 0.0316 µM, first compound 0.0316 µM
[14] = second compound 0.0316 µM, first compound 0.1 µM
[15] = second compound 0.0316 µM, first compound 0.316 µM
[16] = second compound 0.0316 µM, first compound 1 µM
[17] = second compound 0.0316 µM, first compound 3.16 µM
[18] = second compound 0.0316 µM, first compound 10 µM
[19] = second compound 0.1 µM, first compound 0.0316 µM
[20] = second compound 0.1 µM, first compound 0.1 µM
[21] = second compound 0.1 µM, first compound 0.316 µM
[22] = second compound 0.1 µM, first compound 1 µM
[23] = second compound 0.1 µM, first compound 3.16 µM
[24] = second compound 0.1 µM, first compound 10 µM
[25] = second compound 0.316 µM, first compound 0.0316 µM
[26] = second compound 0.316 µM, first compound 0.1 µM
[27] = second compound 0.316 µM, first compound 0.316 µM
[28] = second compound 0.316 µM, first compound 1 µM
[29] = second compound 0.316 µM, first compound 3.16 µM
[30] = second compound 0.316 µM, first compound 10 µM
[31] = second compound 1 µM, first compound 0.0316 µM
[32] = second compound 1 µM, first compound 0.1 µM
[33] = second compound 1 µM, first compound 0.316 µM
[34] = second compound 1 µM, first compound 1 µM
[35] = second compound 1 µM, first compound 3.16 µM
[36] = second compound 1 µM, first compound 10 µM
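Also: spheroids exposed to compound for seven days before readout.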
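For IC50 in this document: luminescence signal used as a proxy for viable cells.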

SMILES: CC1(O)CCCC1n1c(=O)c(C(F)F)cc2cnc(NC3CCN(S(C)(=O)=O)CC3)nc21 (centres undefined) + C=CC(=O)N1CCN(c2nc(OCC3CCCN3C)nc3c(F)c(-c4nc(N)cc(C)c4C(F)(F)F)c(Cl)cc23)C(C)C1
- IC50 (second compound 0.00316 µM): < 31.6 nM
- IC50 (second compound 0.01 µM): < 31.6 nM
- IC50 (second compound 0.0316 µM): < 31.6 nM
- IC50 (second compound 0.1 µM): < 31.6 nM
- IC50 (second compound 0.316 µM): < 31.6 nM
- IC50 (second compound 1 µM): < 31.6 nM
- viability, T/C [1]: 20.1%
- viability, T/C [2]: 16.5%
- viability, T/C [3]: 20.5%
- viability, T/C [4]: 23.8%
- viability, T/C [5]: 20.7%
- viability, T/C [6]: 14%
- viability, T/C [7]: 16.5%
- viability, T/C [8]: 15%
- viability, T/C [9]: 16.2%
- viability, T/C [10]: 19.1%
- viability, T/C [11]: 20.6%
- viability, T/C [12]: 15.1%
- viability, T/C [13]: 13.8%
- viability, T/C [14]: 12.9%
- viability, T/C [15]: 17.8%
- viability, T/C [16]: 18.3%
- viability, T/C [17]: 17.6%
- viability, T/C [18]: 13.4%
- viability, T/C [19]: 12.7%
- viability, T/C [20]: 13.8%
- viability, T/C [21]: 15%
- viability, T/C [22]: 17.8%
- viability, T/C [23]: 17.4%
- viability, T/C [24]: 13.3%
- viability, T/C [25]: 14.5%
- viability, T/C [26]: 15%
- viability, T/C [27]: 16.6%
- viability, T/C [28]: 17.1%
- viability, T/C [29]: 15.8%
- viability, T/C [30]: 13.1%
- viability, T/C [31]: 16.2%
- viability, T/C [32]: 15.3%
- viability, T/C [33]: 17.7%
- viability, T/C [34]: 19.8%
- viability, T/C [35]: 19.6%
- viability, T/C [36]: 12.4%

SMILES: CCC(CC)c1cc(NC2CCC(N)C2)n2nccc2n1 (centres undefined) + C=CC(=O)N1CCN(c2nc(OCC3CCCN3C)nc3c(F)c(-c4nc(N)cc(C)c4C(F)(F)F)c(Cl)cc23)C(C)C1
- IC50 (second compound 0.00316 µM): < 31.6 nM
- IC50 (second compound 0.01 µM): < 31.6 nM
- IC50 (second compound 0.0316 µM): < 31.6 nM
- IC50 (second compound 0.1 µM): < 31.6 nM
- IC50 (second compound 0.316 µM): < 31.6 nM
- IC50 (second compound 1 µM): < 31.6 nM
- viability, T/C [1]: 18.7%
- viability, T/C [2]: 16.5%
- viability, T/C [3]: 17.8%
- viability, T/C [4]: 15.8%
- viability, T/C [5]: 3.58%
- viability, T/C [6]: 0.33%
- viability, T/C [7]: 12.8%
- viability, T/C [8]: 13.4%
- viability, T/C [9]: 15.6%
- viability, T/C [10]: 12.7%
- viability, T/C [11]: 3.96%
- viability, T/C [12]: 0.45%
- viability, T/C [13]: 11.5%
- viability, T/C [14]: 11.6%
- viability, T/C [15]: 12.2%
- viability, T/C [16]: 11.2%
- viability, T/C [17]: 3.67%
- viability, T/C [18]: 0.43%
- viability, T/C [19]: 11.6%
- viability, T/C [20]: 16.4%
- viability, T/C [21]: 12.2%
- viability, T/C [22]: 10.4%
- viability, T/C [23]: 3.67%
- viability, T/C [24]: 0.68%
- viability, T/C [25]: 11.4%
- viability, T/C [26]: 11.2%
- viability, T/C [27]: 12.8%
- viability, T/C [28]: 11.4%
- viability, T/C [29]: 4.66%
- viability, T/C [30]: 0.75%
- viability, T/C [31]: 14.2%
- viability, T/C [32]: 14.3%
- viability, T/C [33]: 14.3%
- viability, T/C [34]: 12.2%
- viability, T/C [35]: 4.35%
- viability, T/C [36]: 0.62%
